Reference: US10301280B2 (Plexxikon Inc., priority 2012, dated 2019)

What was measured:
[1] = biological target: c-kit mutant D816V (Homo sapiens (Human), UniProt P10721, D816V/DEL694-753); experiment: c-Kit mutant D816V biochemical assay (AlphaScreen); settings: c-kit D816V biochemical inhibitory activity
Description: The c-kit mutant D816V (or kinase domain thereof) is an active kinase in AlphaScreen. IC50 values are determined with respect to inhibition of c-Kit mutant D816V kinase activity, where inhibition of phosphorylation of a peptide substrate is measured as a function of compound concentration. Compounds to be tested were dissolved in DMSO to a concentration of 20 mM. These were diluted 30 μl into 120 μl of DMSO (4 mM) and 1 μl was added to an assay plate. These were then serially diluted 1:3 (50 μl to 100 μl DMSO) for a total of 8 points. Plates were prepared such that each kinase reaction is 20 μl in 1× kinase buffer (25 mM HEPES, pH 7.2, 8 mM MgCl2, 2 mM MnCl2, 50 mM NaCl, 0.01% Brij, 1 mM DTT, 0.01% BSA), 5% DMSO and 10 μM ATP. Substrate was 30 nM biotin-(E4Y)10 (EMD Millipore, Cat#12-440). C-kit mutant D816V kinase was at 0.75 ng per sample. After incubation of the kinase reaction for 30 minutes at room temperature, 5 μl of donor beads (Streptavidin coated beads (Perkin Elmer Life Science) final concentration 7.5 μg/ml) in stop buffer (25 mM Hepes pH 7.5, 100 mM EDTA, 0.01% BSA) was added, the sample was mixed and incubated for 20 minutes at room temperature before adding 5 μl of acceptor beads (PY20 coated beads (Perkin Elmer Life Science) final concentration 7.5 ug/ml) in stop buffer. The samples were incubated for 60 minutes at room temperature and the signal per well was read on EnVision reader. Phosphorylated substrate results in binding of the PY20 antibody and association of the donor and acceptor beads such that signal correlates with kinase activity. The signal vs. compound concentration was used to determine the IC50.
Recombinant c-kit mutant D816V (residues 551-934, kinase insertion domain residues 694-753 deleted) with a 6x-histidine N-terminal tag was expressed in E. coli Arctic Express (DE3) RIL (Stratagene). Cells were grown in Terrific Broth (TB) media to an OD600 of 0.6 at 37° C. at which temperature was reduced to 10° C., protein was induced with 1.0 mM IPTG for 18 hours and harvested by centrifugation at 8000×g for 20 minutes. Cells were re-suspended in 0.1M KPO4 pH 8.0, 250 mM NaCl, 10% Glycerol, 0.75% NP-40, 25 mM Imidazole, 5 mM BME with 0.2 mg/ml Lysosyme, 2.0 mM PMSF, 25 μg/ml DNAse I, incubated in ice for 30 minutes and lyzed with a cell disruptor (MicroFluidics). The lysate was clarified by centrifugation at 20,000×g for 2 hours. The protein was captured with Talon resin (Clontech). Contaminating proteins were washed off with 25 mM Tris-HCl pH 8.3, 250 mM NaCl, 15% Glycerol, 1% Triton X-100, and protein eluted using 100 mM EDTA. The protein was further purified using Gel Filtration column 26/600 Superdex 200 (GE) in 50 mM Tris-HCl, pH 8.0, 250 mM NaCl, 15% Glycerol, 5 mM BME. The protein was aliquoted and flash-frozen in liquid Nitrogen.

[2] = system: BaF3-FL KIT D816V or BaF3-FL KIT V560G/D816V cell line; experiment: Cell-based assays of c-Kit mutant kinase activity (cell growth, ATPlite); settings: at least one of the c-kit cell assays of Example 26
In short: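 IC50 derived from ATP-content luminescence (ATPlite) after three-day compound exposure at 37° C., 5% CO2. Cells: BaF3 rendered growth-dependent on full-length human KIT D816V or V560G/D816V, 1×10^4 per well, RPMI plus 10% FBS; 8 points, 1:3 steps, maximum 10 μM final, 0.2% DMSO.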

c-kit mutant D816V, sequence (P10721 other isoform, or with tags, fused parts or gaps D816V/del 694-753): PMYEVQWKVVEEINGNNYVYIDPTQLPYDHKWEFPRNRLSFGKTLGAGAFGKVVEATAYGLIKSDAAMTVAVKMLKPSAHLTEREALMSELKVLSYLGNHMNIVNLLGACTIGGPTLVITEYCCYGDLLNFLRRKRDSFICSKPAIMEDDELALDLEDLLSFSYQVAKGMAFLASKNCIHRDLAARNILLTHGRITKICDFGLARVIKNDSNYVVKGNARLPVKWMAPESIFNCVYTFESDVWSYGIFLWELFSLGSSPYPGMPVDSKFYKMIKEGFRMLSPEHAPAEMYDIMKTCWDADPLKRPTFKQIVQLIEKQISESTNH

| SMILES | IC50 [1] | IC50 [2] |
| --- | --- | --- |
| NC(=O)c1cccc(NC(=O)c2cnc3[nH]c(-c4ccccc4)cc3c2)c1 [P-2003, N-(3-carbamoylphenyl)-2-phenyl-1H-pyrrolo[2,3-b]pyridine-5-carboxamide] | 10 to 200 µM |  |
| O=C(Nc1cnc2[nH]c(-c3ccccc3)cc2c1)c1cc(C2CC2)n[nH]1 [P-2009, 3-cyclopropyl-N-(2-phenyl-1H-pyrrolo[2,3-b]pyridin-5-yl)-1H-pyrazole-5-carboxamide] | 10 to 200 µM |  |
| O=C(Nc1cnc2[nH]c(-c3ccccc3)cc2c1)c1ccncn1 [P-2011, N-(2-phenyl-1H-pyrrolo[2,3-b]pyridin-5-yl)pyrimidine-4-carboxamide] | 10 to 200 µM |  |
| Cc1onc(C(=O)Nc2cnc3[nH]c(-c4ccccc4)cc3c2)c1C [P-2017, 4,5-dimethyl-N-(2-phenyl-1H-pyrrolo[2,3-b]pyridin-5-yl)isoxazole-3-carboxamide] | 10 to 200 µM |  |
| N#CCc1cccc(C(=O)Nc2cnc3[nH]c(-c4ccc(F)cc4)cc3c2)c1 [P-2021, 3-(cyanomethyl)-N-[2-(4-fluorophenyl)-1H-pyrrolo[2,3-b]pyridin-5-yl]benzamide] | 10 to 200 µM |  |
| N#Cc1cccc(C(=O)Nc2cnc3[nH]c(-c4ccc(F)cc4)cc3c2)c1 [P-2025, 3-cyano-N-[2-(4-fluorophenyl)-1H-pyrrolo[2,3-b]pyridin-5-yl]benzamide] | 10 to 200 µM |  |
| Cc1n[nH]c(C(=O)Nc2cnc3[nH]nc(-c4ccc(F)cc4)c3c2)c1C [P-2041, N-(3-(4-fluorophenyl)-1H-pyrazolo[3,4-b]pyridin-5-yl)-3,4-dimethyl-1H-pyrazole-5-carboxamide] | 0.0001 to 1 µM | < 10 µM |
| O=C(Nc1cnc2[nH]c(-c3ccc(F)cc3)cc2c1)c1n[nH]c2c1CCC2 [P-2056, N-[2-(4-fluorophenyl)-1H-pyrrolo[2,3-b]pyridin-5-yl]-1,4,5,6-tetrahydrocyclopenta[c]pyrazole-3-carboxamide] | 0.0001 to 1 µM | < 10 µM |
| Cc1n[nH]c(C(=O)Nc2cnc3[nH]c(C#CCF)cc3c2)c1C [P-2063, N-[2-(3-fluoroprop-1-ynyl)-1H-pyrrolo[2,3-b]pyridin-5-yl]-3,4-dimethyl-1H-pyrazole-5-carboxamide] | 0.0001 to 1 µM | < 10 µM |
| Cc1n[nH]c(C(=O)Nc2cnc3[nH]c(-c4cccc(OCCN5CCOCC5)c4)cc3c2)c1C [P-2066, 3,4-dimethyl-N-[2-[3-(2-morpholinoethoxy)phenyl]-1H-pyrrolo[2,3-b]pyridin-5-yl]-1H-pyrazole-5-carboxamide] | 0.0001 to 1 µM | < 10 µM |
| Cc1cc(C(=O)Nc2cnc3[nH]c(C#CCF)cc3c2)[nH]n1 [P-2068, N-[2-(3-fluoroprop-1-ynyl)-1H-pyrrolo[2,3-b]pyridin-5-yl]-3-methyl-1H-pyrazole-5-carboxamide] | 1 to 10 µM | < 10 µM |
| Cc1[nH]nc(NC(=O)c2cnc3[nH]c(-c4ccccc4)cc3c2)c1C [P-2071] | 10 to 200 µM |  |
| Cc1[nH]nc(C(=O)Nc2cnc3cc(-c4ccc(F)cc4)nn3c2)c1C [P-2072, N-[2-(4-fluorophenyl)pyrazolo[1,5-a]pyrimidin-6-yl]-4,5-dimethyl-1H-pyrazole-3-carboxamide] | 1 to 10 µM | < 10 µM |
| COc1ccc(-c2cc3cc(NC(=O)c4[nH]nc(C)c4C)cnc3[nH]2)c(Cl)c1 [P-2075, N-[2-(2-chloro-4-methoxy-phenyl)-1H-pyrrolo[2,3-b]pyridin-5-yl]-3,4-dimethyl-1H-pyrazole-5-carboxamide] | 0.0001 to 1 µM | < 10 µM |
| COc1ccc(-c2cc3cc(NC(=O)c4[nH]nc(C)c4C)cnc3[nH]2)c(F)c1 [P-2076, N-[2-(2-fluoro-4-methoxy-phenyl)-1H-pyrrolo[2,3-b]pyridin-5-yl]-3,4-dimethyl-1H-pyrazole-5-carboxamide] | 0.0001 to 1 µM | < 10 µM |
| COc1ccc(Cl)c(-c2cc3cc(NC(=O)c4[nH]nc(C)c4C)cnc3[nH]2)c1 [P-2077, N-[2-(2-chloro-5-methoxy-phenyl)-1H-pyrrolo[2,3-b]pyridin-5-yl]-3,4-dimethyl-1H-pyrazole-5-carboxamide] | 1 to 10 µM | < 10 µM |
| Cc1n[nH]c(C(=O)Nc2cnc3[nH]c(-c4cc(F)cc(N5CCOCC5)c4)cc3c2)c1C [P-2078, N-[2-(3-fluoro-5-morpholino-phenyl)-1H-pyrrolo[2,3-b]pyridin-5-yl]-3,4-dimethyl-1H-pyrazole-5-carboxamide] | 0.0001 to 1 µM | < 10 µM |
| Cc1n[nH]c(C(=O)Nc2cnc3[nH]c(-c4cc(OC(F)(F)F)ccc4Cl)cc3c2)c1C [P-2113, N-[2-[2-chloro-5-(trifluoromethoxy)phenyl]-1H-pyrrolo[2,3-b]pyridin-5-yl]-3,4-dimethyl-1H-pyrazole-5-carboxamide] | 1 to 10 µM | < 10 µM |
| Cc1cc2ncc(NC(=O)c3n[nH]c(C)c3C)cn2n1 [P-2114, 4,5-dimethyl-N-(2-methylpyrazolo[1,5-a]pyrimidin-6-yl)-1H-pyrazole-3-carboxamide] | 1 to 10 µM | < 10 µM |
| Cc1n[nH]c(C(=O)Nc2cnc3[nH]c(N4CCCC4)cc3c2)c1C [P-2115, 3,4-dimethyl-N-(2-pyrrolidin-1-yl-1H-pyrrolo[2,3-b]pyridin-5-yl)-1H-pyrazole-5-carboxamide] | 1 to 10 µM | < 10 µM |
| Cc1n[nH]c(C(=O)Nc2cnc3[nH]c(-c4ccc(C#N)c(N5CCCC5)c4)cc3c2)c1C [P-2120, N-[2-(4-cyano-3-pyrrolidin-1-yl-phenyl)-1H-pyrrolo[2,3-b]pyridin-5-yl]-3,4-dimethyl-1H-pyrazole-5-carboxamide] | 0.0001 to 1 µM | < 10 µM |
| CNS(=O)(=O)c1cccc(-c2cc3cc(NC(=O)c4[nH]nc(C)c4C)cnc3[nH]2)c1 [P-2121, 3,4-dimethyl-N-[2-[3-(methylsulfamoyl)phenyl]-1H-pyrrolo[2,3-b]pyridin-5-yl]-1H-pyrazole-5-carboxamide] | 0.0001 to 1 µM | < 10 µM |
| Cc1n[nH]c(C(=O)Nc2cnc3[nH]c(-c4ccc(Cl)cc4)cc3c2)c1C [P-2122, N-[2-(4-chlorophenyl)-1H-pyrrolo[2,3-b]pyridin-5-yl]-3,4-dimethyl-1H-pyrazole-5-carboxamide] | 0.0001 to 1 µM | < 10 µM |
| Cc1ccc(-c2cc3cc(NC(=O)c4[nH]nc(C)c4C)cnc3[nH]2)cn1 [P-2123, 3,4-dimethyl-N-[2-(6-methyl-3-pyridyl)-1H-pyrrolo[2,3-b]pyridin-5-yl]-1H-pyrazole-5-carboxamide] | 0.0001 to 1 µM | < 10 µM |
| Cc1n[nH]c(C(=O)Nc2cnc3[nH]c(-c4ccccc4)nc3c2)c1C [P-2145, 3,4-dimethyl-N-(2-phenyl-3H-imidazo[4,5-b]pyridin-6-yl)-1H-pyrazole-5-carboxamide] | 0.0001 to 1 µM | < 10 µM |
| Cc1n[nH]c(C(=O)Nc2cnc3[nH]c(-c4cccc(F)c4C)cc3c2)c1C [P-2146, N-[2-(3-fluoro-2-methyl-phenyl)-1H-pyrrolo[2,3-b]pyridin-5-yl]-3,4-dimethyl-1H-pyrazole-5-carboxamide] | 0.0001 to 1 µM | < 10 µM |
| Cc1n[nH]c(C(=O)Nc2cnc3[nH]c(-c4ccc(OCC5(C)COC5)cc4)cc3c2)c1C [P-2149, 3,4-dimethyl-N-[2-[4-[(3-methyloxetan-3-yl)methoxy]phenyl]-1H-pyrrolo[2,3-b]pyridin-5-yl]-1H-pyrazole-5-carboxamide] | 0.0001 to 1 µM | < 10 µM |
| Cc1n[nH]c(C(=O)Nc2cnc3[nH]c(-c4ccccc4)nc3c2)c1Cl [P-2150, 4-chloro-3-methyl-N-(2-phenyl-3H-imidazo[4,5-b]pyridin-6-yl)-1H-pyrazole-5-carboxamide] | 0.0001 to 1 µM | < 10 µM |
